Measurements taken from patent US8952024B2, “Herbicidal pyrimidone derivatives” (E I du Pont de Nemours and Company, priority 2009, dated 2015).

Key:
Assay in all cases: Test D pre-/postemergence plant response
Format in all cases: in vivo
[1] = system: sandbur (southern sandbur, Cenchrus echinatus)
How it was run: (§1)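 Visual 0–100 scoring (100 = complete control) versus untreated controls after 14–21 greenhouse days. Compounds, formulated in surfactant-containing non-phytotoxic solvent, were applied preemergence to seeded loam/sand and postemergence to 2–18 cm plants (1–4 leaves).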

[2] = system: bermudagrass (Cynodon dactylon)
How it was run: as §1

[3] = system: quackgrass (Elytrigia repens)
How it was run: as §1

[4] = system: dayflower (Virginia (VA) dayflower, Commelina virginica)
How it was run: as §1

[5] = system: mallow (common mallow, Malva sylvestris)
How it was run: as §1

[6] = system: guineagrass (Panicum maximum)
How it was run: as §1

[7] = system: green foxtail (Setaria viridis)
How it was run: as §1

[8] = system: signalgrass (broadleaf signalgrass, Brachiaria platyphylla)
How it was run: as §1

[9] = system: barnyardgrass (Echinochloa crus-galli)
How it was run: as §1

[10] = system: prickly sida (Sida spinosa)
How it was run: as §1

[11] = system: itchgrass (Rottboellia cochinchinensis)
How it was run: as §1

[12] = system: ragweed (common ragweed, Ambrosia elatior)
How it was run: as §1

[13] = system: sowthistle (common sowthistle, Sonchus oleraceous)
How it was run: as §1

[14] = system: black mustard (Brassica nigra)
How it was run: as §1

[15] = system: dallisgrass (Paspalum dilatatum)
How it was run: as §1

[16] = system: Russian thistle (Salsola kali)
How it was run: as §1

[17] = Postemergence, 16 g ai/ha, scale 0 to 100
[18] = Postemergence, 31 g ai/ha, scale 0 to 100
[19] = Postemergence, 125 g ai/ha, scale 0 to 100 (0 no effect, 100 complete control)
[20] = Postemergence, 62 g ai/ha, scale 0 to 100 (0 no effect, 100 complete control)
[21] = Preemergence, 16 g ai/ha, scale 0 to 100, 0 no effect, 100 complete control
[22] = Preemergence, 31 g ai/ha, scale 0 to 100 (0 no effect, 100 complete control)
[23] = Preemergence, 125 g ai/ha, scale 0 to 100
[24] = Postemergence, 31 g ai/ha, scale 0 to 100 (0 no effect, 100 complete control)
[25] = Preemergence, 62 g ai/ha, scale 0 to 100

## Cc1c(F)cccc1-n1c(-c2ccccc2)ncc(C(=O)C2=C(O)CCCC2=O)c1=O [Compound 47, 3-(3-fluoro-2-methylphenyl)-5-[(2-hydroxy-6-oxo-1-cyclohexen-1-yl)carbonyl]-2-phenyl-4(3H)-pyrimidinone]
[1]; [17]
  Plant response rating, Sandbur: 5
[1]; [18]
  Plant response rating, Sandbur: 5
[1]; [19]
  Plant response rating, Sandbur: 35
[1]; [20]
  Plant response rating, Sandbur: 20
[1]; [21]
  Plant response rating, Sandbur: 0
[1]; [22]
  Plant response rating, Sandbur: 0
[1]; [23]
  Plant response rating, Sandbur: 90
[2]; [17]
  Plant response rating, Bermudagrass: 50
[2]; [24]
  Plant response rating, Bermudagrass: 50
[2]; [19]
  Plant response rating, Bermudagrass: 90
[2]; [20]
  Plant response rating, Bermudagrass: 70
[2]; [21]
  Plant response rating, Bermudagrass: 10
[2]; [22]
  Plant response rating, Bermudagrass: 25
[2]; [25]
  Plant response rating, Bermudagrass: 50
[2]; [23]
  Plant response rating, Bermudagrass: 100
[3]; [17]
  Plant response rating, Quackgrass: 0
[3]; [18]
  Plant response rating, Quackgrass: 0
[3]; [19]
  Plant response rating, Quackgrass: 5
[3]; [20]
  Plant response rating, Quackgrass: 0
[3]; [21]
  Plant response rating, Quackgrass: 0
[3]; [22]
  Plant response rating, Quackgrass: 0
[3]; [23]
  Plant response rating, Quackgrass: 0
[4]; [17]
  Plant response rating, Dayflower, VA: 10
[4]; [18]
  Plant response rating, Dayflower, VA: 15
[4]; [19]
  Plant response rating, Dayflower, VA: 30
[4]; [20]
  Plant response rating, Dayflower, VA: 20
[4]; [21]
  Plant response rating, Dayflower, VA: 35
[4]; [22]
  Plant response rating, Dayflower, VA: 35
[4]; [25]
  Plant response rating, Dayflower, VA: 50
[4]; [23]
  Plant response rating, Dayflower, VA: 50
[5]; [17]
  Plant response rating, Mallow: 35
[5]; [18]
  Plant response rating, Mallow: 50
[5]; [19]
  Plant response rating, Mallow: 65
[5]; [20]
  Plant response rating, Mallow: 65
[5]; [21]
  Plant response rating, Mallow: 0
[5]; [22]
  Plant response rating, Mallow: 0
[5]; [25]
  Plant response rating, Mallow: 65
[5]; [23]
  Plant response rating, Mallow: 98
[6]; [17]
  Plant response rating, Guineagrass: 10
[6]; [18]
  Plant response rating, Guineagrass: 20
[6]; [19]
  Plant response rating, Guineagrass: 30
[6]; [20]
  Plant response rating, Guineagrass: 20
[6]; [21]
  Plant response rating, Guineagrass: 0
[6]; [22]
  Plant response rating, Guineagrass: 0
[6]; [25]
  Plant response rating, Guineagrass: 0
[6]; [23]
  Plant response rating, Guineagrass: 0
[7]; [17]
  Plant response rating, Foxtail, Green: 5
[7]; [18]
  Plant response rating, Foxtail, Green: 35
[7]; [19]
  Plant response rating, Foxtail, Green: 95
[7]; [20]
  Plant response rating, Foxtail, Green: 50
[7]; [21]
  Plant response rating, Foxtail, Green: 0
[7]; [22]
  Plant response rating, Foxtail, Green: 0
[7]; [25]
  Plant response rating, Foxtail, Green: 0
[7]; [23]
  Plant response rating, Foxtail, Green: 0
[8]; [17]
  Plant response rating, Signalgrass: 0
[8]; [18]
  Plant response rating, Signalgrass: 5
[8]; [19]
  Plant response rating, Signalgrass: 20
[8]; [20]
  Plant response rating, Signalgrass: 15
[8]; [21]
  Plant response rating, Signalgrass: 0
[8]; [22]
  Plant response rating, Signalgrass: 0
[8]; [23]
  Plant response rating, Signalgrass: 90
[9]; [17]
  Plant response rating, Barnyardgrass: 70
[9]; [24]
  Plant response rating, Barnyardgrass: 70
[9]; [19]
  Plant response rating, Barnyardgrass: 70
[9]; [20]
  Plant response rating, Barnyardgrass: 70
[9]; [21]
  Plant response rating, Barnyardgrass: 0
[9]; [22]
  Plant response rating, Barnyardgrass: 0
[9]; [25]
  Plant response rating, Barnyardgrass: 5
[9]; [23]
  Plant response rating, Barnyardgrass: 5
[10]; [17]
  Plant response rating, Prickly Sida: 60
[10]; [18]
  Plant response rating, Prickly Sida: 70
[10]; [19]
  Plant response rating, Prickly Sida: 90
[10]; [20]
  Plant response rating, Prickly Sida: 80
[10]; [21]
  Plant response rating, Prickly Sida: 0
[10]; [22]
  Plant response rating, Prickly Sida: 50
[10]; [25]
  Plant response rating, Prickly Sida: 65
[10]; [23]
  Plant response rating, Prickly Sida: 100
[11]; [17]
  Plant response rating, Itchgrass: 0
[11]; [18]
  Plant response rating, Itchgrass: 5
[11]; [19]
  Plant response rating, Itchgrass: 10
[11]; [20]
  Plant response rating, Itchgrass: 5
[11]; [21]
  Plant response rating, Itchgrass: 0
[11]; [22]
  Plant response rating, Itchgrass: 0
[11]; [25]
  Plant response rating, Itchgrass: 0
[11]; [23]
  Plant response rating, Itchgrass: 0
[12]; [17]
  Plant response rating, Ragweed: 75
[12]; [18]
  Plant response rating, Ragweed: 75
[12]; [19]
  Plant response rating, Ragweed: 95
[12]; [20]
  Plant response rating, Ragweed: 80
[12]; [21]
  Plant response rating, Ragweed: 0
[12]; [22]
  Plant response rating, Ragweed: 50
[12]; [23]
  Plant response rating, Ragweed: 100
[13]; [17]
  Plant response rating, Sowthistle: 90
[13]; [18]
  Plant response rating, Sowthistle: 100
[13]; [19]
  Plant response rating, Sowthistle: 100
[13]; [20]
  Plant response rating, Sowthistle: 100
[13]; [21]
  Plant response rating, Sowthistle: 65
[13]; [22]
  Plant response rating, Sowthistle: 65
[13]; [23]
  Plant response rating, Sowthistle: 100
[14]; [17]
  Plant response rating, Black Mustard: 95
[14]; [24]
  Plant response rating, Black Mustard: 100
[14]; [19]
  Plant response rating, Black Mustard: 100
[14]; [20]
  Plant response rating, Black Mustard: 100
[14]; [21]
  Plant response rating, Black Mustard: 0
[14]; [22]
  Plant response rating, Black Mustard: 65
[14]; [25]
  Plant response rating, Black Mustard: 80
[14]; [23]
  Plant response rating, Black Mustard: 100
[15]; [17]
  Plant response rating, Dallisgrass: 5
[15]; [18]
  Plant response rating, Dallisgrass: 10
[15]; [19]
  Plant response rating, Dallisgrass: 15
[15]; [20]
  Plant response rating, Dallisgrass: 15
[15]; [21]
  Plant response rating, Dallisgrass: 0
[15]; [22]
  Plant response rating, Dallisgrass: 25
[15]; [25]
  Plant response rating, Dallisgrass: 65
[15]; [23]
  Plant response rating, Dallisgrass: 75
[16]; [17]
  Plant response rating, Russian Thistle: 20
[16]; [20]
  Plant response rating, Russian Thistle: 20
[16]; [21]
  Plant response rating, Russian Thistle: 0
[16]; [23]
  Plant response rating, Russian Thistle: 100
